This assay concerns BDF1 mice, Friend leukemia sc, tumor weight T/C. Briefly: NCI In Vivo Anticancer Drug Screen. Data for tumor model Friend Virus Leukemia (Solid) (subcutaneous) in B6D2F1 (BDF1) mice. The settings on record: endpoint: mean tumor weight, schedule: Q01DX011 (ip), higher = larger tumour. Here is the method:
The antitumor activity of compounds was measured in mice bearing transplantable tumors. Survival or tumor size were measured and the results are expressed as the measurement made in the treated group (T) divided by the measurement made in the vehicle treated control group (C). The tumor model used in this assay is Friend Virus Leukemia (Solid) (subcutaneous) in B6D2F1 (BDF1) mice

Where [1] appears, read: dose: 37.5 mg/kg/injection, vehicle: carboxymethylcellulose (CMC).
[2] abbreviates: dose: 75.0 mg/kg/injection, vehicle: carboxymethylcellulose (CMC).
Where [3] appears, read: dose: 100.0 mg/kg/injection, vehicle: carboxymethylcellulose (CMC).
Setting [4] is: dose: 1.0 mg/kg/injection, vehicle: carboxymethylcellulose (CMC).
The mark [5] stands for this setting: dose: 2.0 mg/kg/injection, vehicle: carboxymethylcellulose (CMC).
[6] abbreviates: dose: 50.0 mg/kg/injection, vehicle: carboxymethylcellulose (CMC).

Values joined by “and” are separate entries in the source; they are usually repeats but may differ in a detail not shown here. Identical values can stand only once. Results filed as inconclusive are left out.

In the case of `CC(=O)N(C)C`, the T/C (dose: 250.0 mg/kg/injection, vehicle: saline) was 113 % of control.

For `Clc1ccc2c(Cl)ncnc2c1`, the T/C is 96 % of control (dose: 19.0 mg/kg/injection, vehicle: carboxymethylcellulose (CMC)); 59 % of control under setting [1]; 31 % of control under setting [2].

On to `O=C(O)CCc1c[nH]c2ccc(N(CCCl)CCCl)cc12`, for which the T/C is 107 % of control (dose: 1.2 mg/kg/injection, vehicle: carboxymethylcellulose (CMC)); 92 % of control (dose: 2.5 mg/kg/injection, vehicle: carboxymethylcellulose (CMC)); 114 % of control (dose: 5.0 mg/kg/injection, vehicle: carboxymethylcellulose (CMC)).

Regarding `CC(CCc1cccc2ccccc12)(C(=O)O)C(=O)O`, the T/C under setting [3] was 92 % of control.

As to `CC(C)=CC1C(C(=O)OCc2ccc(C)cc2C)C1(C)C` (stereo not drawn), the T/C reads like this: (dose: 87.5 mg/kg/injection, vehicle: carboxymethylcellulose (CMC)) 107 % of control; (dose: 175.0 mg/kg/injection, vehicle: carboxymethylcellulose (CMC)) 83 % of control; (dose: 350.0 mg/kg/injection, vehicle: carboxymethylcellulose (CMC)) 53 % of control; (dose: 500.0 mg/kg/injection, vehicle: carboxymethylcellulose (CMC)) 46 % of control.

For `CS(=O)(=O)OCCCl`, the T/C is 67 % of control (dose: 14.0 mg/kg/injection, vehicle: carboxymethylcellulose (CMC)); 70 % of control (dose: 28.0 mg/kg/injection, vehicle: carboxymethylcellulose (CMC)); 69 % of control (dose: 57.0 mg/kg/injection, vehicle: carboxymethylcellulose (CMC)); 60 % of control (dose: 115.0 mg/kg/injection, vehicle: carboxymethylcellulose (CMC)).

For the molecule `O=c1cn[nH]c(=O)[nH]1`, the T/C runs as follows: (dose: 110.0 mg/kg/injection, vehicle: carboxymethylcellulose (CMC)) 72 % of control; (dose: 220.0 mg/kg/injection, vehicle: carboxymethylcellulose (CMC)) 89 % of control; (dose: 440.0 mg/kg/injection, vehicle: carboxymethylcellulose (CMC)) 96 % of control.

Consider `CCCn1cnc2c(=S)nc(N)[nH]c21`, for which the T/C is, setting by setting: (dose: 0.67 mg/kg/injection, vehicle: carboxymethylcellulose (CMC)) 67 % of control; under setting [4], 67 % of control; (dose: 1.5 mg/kg/injection, vehicle: carboxymethylcellulose (CMC)) 28 % of control; (dose: 2.9 mg/kg/injection, vehicle: carboxymethylcellulose (CMC)) 32 % of control; (dose: 4.4 mg/kg/injection, vehicle: carboxymethylcellulose (CMC)) 32 % of control.

As for `CCCCn1cnc2c(SC)nc(N)nc21`, the T/C (dose: 18.75 mg/kg/injection, vehicle: carboxymethylcellulose (CMC)) was 120 % of control; the T/C under setting [1] was 98 % of control; the T/C under setting [2] was 83 % of control; the T/C (dose: 150.0 mg/kg/injection, vehicle: carboxymethylcellulose (CMC)) was 63 % of control.

Take `Nc1nc(SCc2ccccc2)c2[nH]cnc2n1`: the T/C under setting [5] was 84 % of control; the T/C (dose: 3.12 mg/kg/injection, vehicle: saline) is 25 % of control; the T/C (dose: 4.0 mg/kg/injection, vehicle: carboxymethylcellulose (CMC)) is 79 % of control; the T/C (dose: 6.25 mg/kg/injection, vehicle: saline) is 43 % of control; the T/C (dose: 8.0 mg/kg/injection, vehicle: carboxymethylcellulose (CMC)) was 99 % of control; the T/C (dose: 10.0 mg/kg/injection, vehicle: carboxymethylcellulose (CMC)) was 46 % of control.

As to `CCOC(=O)NC`, the T/C is 114 % of control (dose: 75.0 mg/kg/injection, vehicle: saline); 98 % of control (dose: 150.0 mg/kg/injection, vehicle: saline); 75 % of control (dose: 300.0 mg/kg/injection, vehicle: saline); 48 % of control (dose: 500.0 mg/kg/injection, vehicle: saline); 53 % of control (dose: 600.0 mg/kg/injection, vehicle: saline); 37 % of control (dose: 750.0 mg/kg/injection, vehicle: saline).

For the molecule `CCCn1cnc2c(SCc3ccccc3Cl)nc(N)nc21`, the T/C reads like this: under setting [6], 57 % of control; under setting [3], 41 % of control; (dose: 200.0 mg/kg/injection, vehicle: carboxymethylcellulose (CMC)) 12 % of control; (dose: 400.0 mg/kg/injection, vehicle: carboxymethylcellulose (CMC)) 5 % of control.

As to `CCc1nc(N)nc(N)c1-c1ccc(Cl)cc1`, the T/C (dose: 6.25 mg/kg/injection, vehicle: carboxymethylcellulose (CMC)) was 124 % of control; the T/C (dose: 12.5 mg/kg/injection, vehicle: carboxymethylcellulose (CMC)) is 85 % of control; the T/C (dose: 25.0 mg/kg/injection, vehicle: carboxymethylcellulose (CMC)) is 113 % of control; the T/C under setting [6] was 95 % of control.

Consider `Cc1c2ccc3ccccc3c2c[n+]2ccccc12`, for which the T/C (dose: 3.0 mg/kg/injection, vehicle: carboxymethylcellulose (CMC)) is 97 % of control; the T/C (dose: 6.0 mg/kg/injection, vehicle: carboxymethylcellulose (CMC)) is 105 % of control; the T/C (dose: 24.0 mg/kg/injection, vehicle: carboxymethylcellulose (CMC)) was 61 % of control and 37 % of control.

Consider `N#C[C@@H]1C2C=CC(CC2)[C@H]1C#N`, for which the T/C is 97 % of control (dose: 0.5 mg/kg/injection, vehicle: carboxymethylcellulose (CMC)); 71 % of control under setting [4]; 83 % of control under setting [5].

With `CC(C)CCSc1nc(N)nc2nc[nH]c12`, the T/C runs as follows: (dose: 11.0 mg/kg/injection, vehicle: carboxymethylcellulose (CMC)) 59 % of control; (dose: 22.0 mg/kg/injection, vehicle: carboxymethylcellulose (CMC)) 38 % of control; (dose: 45.0 mg/kg/injection, vehicle: carboxymethylcellulose (CMC)) 18 % of control and 21 % of control; (dose: 90.0 mg/kg/injection, vehicle: carboxymethylcellulose (CMC)) 7 % of control and 21 % of control; (dose: 180.0 mg/kg/injection, vehicle: carboxymethylcellulose (CMC)) 5 % of control.

As for `CC1CN1C(=O)c1cc(C(=O)N2CC2C)cc(C(=O)N2CC2C)c1` (stereo not drawn), the T/C (dose: 15.0 mg/kg/injection, vehicle: carboxymethylcellulose (CMC)) was 70 % of control; the T/C (dose: 30.0 mg/kg/injection, vehicle: carboxymethylcellulose (CMC)) was 151 % of control; the T/C (dose: 60.0 mg/kg/injection, vehicle: carboxymethylcellulose (CMC)) is 47 % of control.

Take `c1ccc(CNc2ncnc3[nH]ncc23)cc1`: the T/C (dose: 1.12 mg/kg/injection, vehicle: carboxymethylcellulose (CMC)) was 109 % of control; the T/C (dose: 2.25 mg/kg/injection, vehicle: carboxymethylcellulose (CMC)) was 77 % of control; the T/C (dose: 4.5 mg/kg/injection, vehicle: carboxymethylcellulose (CMC)) was 78 % of control; the T/C (dose: 9.0 mg/kg/injection, vehicle: carboxymethylcellulose (CMC)) is 117 % of control; the T/C (dose: 18.5 mg/kg/injection, vehicle: carboxymethylcellulose (CMC)) was 15 % of control.

Turning to `NC(N)=N/N=C/C=N/N=C(N)N`, under “dose: 50.0 mg/kg/injection, vehicle: saline”, the T/C is 189 % of control.

The values above are taken from PubChem BioAssay AID228 (DTP/NCI, 2004).
